# Reference: USRE40086E1, “Method for treating bacterial infection with novel 7-substituted-9-substituted amino 6-demethyl-6-deoxytetracyclines” (Wyeth Holdings Corporation, priority 1991, dated 2008)
# Counter-ions that a name gives are not always drawn. Like-named read-outs stand apart in the source and are kept apart here.
# Legend:
# [1] = system: S. aureus UBMS 88-5 (tetM); assay: MIC, agar dilution; format: cell-based; settings: for MIC: S. aureus UBMS 88-5 (tetM)
# [2] = system: S. aureus UBMS 88-4 (Sensitive); assay: MIC, agar dilution; format: cell-based
# [3] = system: S. aureus UBMS 90-1 (tetM); assay: MIC, agar dilution; format: cell-based; settings: for MIC: S. aureus UBMS 90-1 (tetM)
# [4] = system: S. aureus UBMS 90-2 (tetM); assay: MIC, agar dilution; format: cell-based; settings: for MIC: S. aureus UBMS 90-2 (tetM)
# [5] = system: S. aureus UBMS 90-3 (Sensitive); assay: MIC, agar dilution; format: cell-based
# [6] = system: S. aureus UBMS 88-7 (tetK); assay: MIC, agar dilution; format: cell-based
# [7] = system: S. aureus ATCC 29213 (Sensitive); assay: MIC, agar dilution; format: cell-based
# [8] = system: S. aureus Smith (Sensitive); assay: MIC, agar dilution; format: cell-based
# E. faecalis ATCC 29212 = assay: MIC, agar dilution; format: cell-based; settings: E. faecalis ATCC 29212
# E. coli UBMS 88-1 (tetB) = assay: MIC, agar dilution; format: cell-based; settings: for MIC: E. coli UBMS 88-1 (tetB)
# E. coli UBMS 89-1 (tetM) = assay: MIC, agar dilution; format: cell-based
# [9] = system: E. coli UBMS 89-2 (Sensitive); assay: MIC, agar dilution; format: cell-based
# E. coli ATCC 25922 = assay: MIC, agar dilution; format: cell-based
# E. coli UBMS 90-4 (tetM) = assay: MIC, agar dilution; format: cell-based
# [10] = system: Staphylococcus aureus, methicillin-resistant; assay: MIC vs recent clinical and agricultural isolates (Table V, KK); format: cell-based; settings: [15] tested
# [11] = system: Staphylococcus aureus, methicillin-susceptible; assay: as above; format: cell-based; settings: [15] tested
# [12] = system: Staphylococcus Coagulase-negative, methicillin-susceptible; assay: as above; format: cell-based; settings: [16] tested
# Enterococcus faecalis = assay: as above; format: cell-based; settings: [10] tested
# Enterococcus faecium = assay: as above; format: cell-based; settings: [10] tested
# [13] = system: Enterococcus spp. Vancomycin-resistant; assay: as above; format: cell-based; settings: [8] tested
# Streptococcus agalactiae = assay: as above; format: cell-based; settings: [10] tested
# Streptococcus pneumoniae = assay: as above; format: cell-based; settings: [10] tested
# Listeria monocytogenes = assay: as above; format: cell-based; settings: [8] tested
# Kiebsiella pneumoniae = assay: as above; format: cell-based; settings: [10] tested
# Klebsiella oxytoca = assay: as above; format: cell-based; settings: [10] tested
# Citrobacter freundii = assay: as above; format: cell-based; settings: [10] tested
# Citrobacter diversus = assay: as above; format: cell-based; settings: [10] tested
# Serratia mercescens = assay: as above; format: cell-based; settings: [10] tested
# Enterobacter cloacae = assay: as above; format: cell-based; settings: [10] tested
# Enterobacter aerogenes = assay: as above; format: cell-based; settings: [10] tested
# Proteus mirabilis = assay: as above; format: cell-based; settings: [26] tested
# Proteus vulgaris = assay: as above; format: cell-based; settings: [18] tested
# Morganella morganii = assay: as above; format: cell-based; settings: [16] tested
# Pseudomonas aeruginosa = assay: as above; format: cell-based; settings: [10] tested
# Xanthomonas maltophilia = assay: as above; format: cell-based; settings: [10] tested
# Moraxella catarrhalis = assay: as above; format: cell-based; settings: [18] tested
# Haemophilus influenzae = assay: as above; format: cell-based; settings: [15] tested
# [14] = system: Pasturella multocida (Agricultural & Clinical); assay: as above; format: cell-based; settings: [17] tested
# [15] = system: Bordetella bronchiseptica (Agricultural); assay: as above; format: cell-based; settings: [10] tested
# Bacteroides fragilis = assay: as above; format: cell-based; settings: [11] tested
# [16] = system: Bacertoides fragilis group; assay: as above; format: cell-based; settings: [10] tested
# Clostridium difficile = assay: as above; format: cell-based; settings: [12] tested
# Anaerobic Gram (+) Cocci = assay: as above; format: cell-based; settings: [15] tested
# S. aureus SMITH (sens) = assay: In vivo antibacterial evaluation, acute lethal infection in mice
# Text: In Vivo Antibacterial Evaluation (Table VII)
# [17] = system: Escherichia coli UBMS 90-4 (Tet-M); assay: as above
compound,measurement,setting,value
"CN(C)c1ccc(O)c2c1C[C@H]1C[C@H]3[C@H](N(C)C)C(O)=C(C(N)=O)C(=O)[C@@]3(O)C(O)=C1C2=O [Compound O, 7-(Dimethylamino)-6-demethyl-6-deoxytetracycline hydrochloride (minocycline hydrochloride), reference compound]",MIC,[1]; hydrochloride,4 µg/mL
same,MIC,[1]; Staphylococcus aureus,2 µg/mL
same,MIC,"[2]; Staphylococcus aureus, S. aureus UBMS 88-4 (Sensitive), read-out: MIC",≤ 0.015 µg/mL
same,MIC,[3]; hydrochloride,2 µg/mL
same,MIC,[3]; Staphylococcus aureus,4 µg/mL
same,MIC,[4]; hydrochloride,1 µg/mL
same,MIC,[4]; Staphylococcus aureus,2 µg/mL
same,MIC,"[5]; Staphylococcus aureus, S. aureus UBMS 90-3 (Sensitive), read-out: MIC",≤ 0.015 µg/mL
same,MIC,[6]; Staphylococcus aureus,0.06 µg/mL
same,MIC,"[7]; Staphylococcus aureus, ATCC29213, S. aureus ATCC 29213 (Sensitive), read-out: MIC",≤ 0.015 µg/mL
same,MIC,"[8]; Staphylococcus aureus, S. aureus Smith (Sensitive), read-out: MIC",≤ 0.015 µg/mL
same,MIC,"E. faecalis ATCC 29212; Enterococcus faecalis, ATCC29212, read-out: MIC",0.5 µg/mL
same,MIC,E. coli UBMS 88-1 (tetB); hydrochloride,16 µg/mL
same,MIC,E. coli UBMS 88-1 (tetB); Escherichia coli,8 µg/mL
same,MIC,E. coli UBMS 89-1 (tetM); Escherichia coli,16 µg/mL
same,MIC,"[9]; Escherichia coli, E. coli UBMS 89-2 (Sensitive), read-out: MIC",0.5 µg/mL
same,MIC,"E. coli ATCC 25922; E. coli ATCC 25922, hydrochloride",0.5 µg/mL
same,MIC,"E. coli ATCC 25922; Escherichia coli, ATCC25922, E. coli ATCC 25922, read-out: MIC",0.25 µg/mL
same,MIC,E. coli UBMS 90-4 (tetM); Escherichia coli,64 µg/mL
same,MIC (range over isolates),[10],0.06 to 4 µg/mL
same,MIC (range over isolates),[11],0.03 to 0.12 µg/mL
same,MIC (range over isolates),[12],0.03 to 1 µg/mL
same,MIC (range over isolates),Enterococcus faecalis,0.03 to 16 µg/mL
same,MIC (range over isolates),Enterococcus faecium,0.03 to 16 µg/mL
same,MIC (range over isolates),[13],0.03 to 16 µg/mL
same,MIC (range over isolates),Streptococcus agalactiae,0.12 to 16 µg/mL
same,MIC (range over isolates),Streptococcus pneumoniae,0.06 to 0.5 µg/mL
same,MIC (range over isolates),Listeria monocytogenes,0.015 to 0.03 µg/mL
same,MIC (range over isolates),Kiebsiella pneumoniae,0.5 to 8 µg/mL
same,MIC (range over isolates),Klebsiella oxytoca,0.5 to 4 µg/mL
same,MIC (range over isolates),Citrobacter freundii,0.03 to 32 µg/mL
same,MIC (range over isolates),Citrobacter diversus,0.25 to 4 µg/mL
same,MIC (range over isolates),Serratia mercescens,1 to 8 µg/mL
same,MIC (range over isolates),Enterobacter cloacae,0.25 to 4 µg/mL
same,MIC (range over isolates),Enterobacter aerogenes,0.5 to 1 µg/mL
same,MIC (range over isolates),Proteus mirabilis,1 to 32 µg/mL
same,MIC (range over isolates),Proteus vulgaris,0.5 to 16 µg/mL
same,MIC (range over isolates),Morganella morganii,0.25 to 32 µg/mL
same,MIC (range over isolates),Pseudomonas aeruginosa,1 to 16 µg/mL
same,MIC (range over isolates),Xanthomonas maltophilia,0.12 to 1 µg/mL
same,MIC (range over isolates),Moraxella catarrhalis,0.03 to 0.12 µg/mL
same,MIC (range over isolates),Haemophilus influenzae,0.5 to 2 µg/mL
same,MIC (range over isolates),[14],0.015 to 4 µg/mL
same,MIC (range over isolates),[15],0.06 to 0.12 µg/mL
same,MIC (range over isolates),Bacteroides fragilis,<0.008 to 16 µg/mL
same,MIC (range over isolates),[16],<0.008 to 4 µg/mL
same,MIC (range over isolates),Clostridium difficile,0.015 to 16 µg/mL
same,MIC (range over isolates),Anaerobic Gram (+) Cocci,0.05 to 8 µg/mL
same,ED50,"S. aureus SMITH (sens); Staphylococcus aureus, Oral, read-out: ED50",0.74 mg/kg
same,ED50,"S. aureus SMITH (sens); Staphylococcus aureus, iv, Intraveneous, read-out: ED50",0.37 mg/kg
same,ED50,"[17]; Escherichia coli, in Mus musculus, iv",> 32 mg/kg
"CN(C)CC(=O)Nc1cc(N(C)C)c2c(c1O)C(=O)C1=C(O)[C@]3(O)C(=O)C(C(N)=O)=C(O)[C@@H](N(C)C)C3CC1C2.Cl.Cl (stereo partly drawn) [KK, [4S-(4alpha,12aalpha)]-4,7-Bis(dimethylamino)-9-[[(dimethylamino)acetyl]amino]-1,4,4a,5,5a,6,11,12a-octahydro-3,10,12,12a-tetrahydroxy-1,11-dioxo-2-naphthacenecarboxamide dihydrochloride]",Antibacterial activity (MIC),"[1]; S. aureus UBMS 88-5 TetM, Table IA, unit assumed",0.25 µg/mL
same,Antibacterial activity (MIC),"[2]; S. aureus UBMS 88-4, Table IA, unit assumed",0.12 µg/mL
same,Antibacterial activity (MIC),"[3]; S. aureus UBMS 90-1 TetM, Table IA, unit assumed",0.25 µg/mL
same,Antibacterial activity (MIC),"[4]; S. aureus UBMS 90-2 TetM, Table IA, unit assumed",0.12 µg/mL
same,Antibacterial activity (MIC),"[5]; S. aureus UBMS 90-3, Table IA, unit assumed",0.03 µg/mL
same,Antibacterial activity (MIC),"[6]; S. aureus UBMS 88-7 TetK, Table IA, unit assumed",0.25 µg/mL
same,Antibacterial activity (MIC),"[7]; S. aureus ATCC 29213, Table IA",≦0.015
same,Antibacterial activity (MIC),"[8]; S. aureus SMITH (MP), Table IA, unit assumed",0.06 µg/mL
same,Antibacterial activity (MIC),"E. faecalis ATCC 29212; Table IA, unit assumed",0.06 µg/mL
same,Antibacterial activity (MIC),"E. coli UBMS 88-1 (tetB); E. coli UBMS 88-1 TetB, Table IA, unit assumed",0.25 µg/mL
same,Antibacterial activity (MIC),"E. coli UBMS 89-1 (tetM); E. coli UBMS 89-1 TetM, Table IA, unit assumed",0.12 µg/mL
same,Antibacterial activity (MIC),"[9]; E. coli UBMS 89-2 Tet Sens., Table IA, unit assumed",0.25 µg/mL
same,Antibacterial activity (MIC),"E. coli ATCC 25922; E. coli ATCC 25922, Table IA, unit assumed",0.25 µg/mL
same,Antibacterial activity (MIC),"E. coli UBMS 90-4 (tetM); E. coli UBMS 90-4 TetM, Table IA, unit assumed",0.25 µg/mL
same,MIC (range over isolates),[10],0.12 to 2 µg/mL
same,MIC (range over isolates),[11],0.12 to 0.25 µg/mL
same,MIC (range over isolates),[12],0.12 to 8 µg/mL
same,MIC (range over isolates),Enterococcus faecalis,0.015 to 0.12 µg/mL
same,MIC (range over isolates),Enterococcus faecium,0.03 to 0.12 µg/mL
same,MIC (range over isolates),[13],0.015 to 0.06 µg/mL
same,MIC (range over isolates),Streptococcus agalactiae,0.06 to 0.25 µg/mL
same,MIC (range over isolates),Streptococcus pneumoniae,0.03 to 0.25 µg/mL
same,MIC (range over isolates),Listeria monocytogenes,0.06 to 0.12 µg/mL
same,MIC (range over isolates),Kiebsiella pneumoniae,0.25 to 8 µg/mL
same,MIC (range over isolates),Klebsiella oxytoca,0.5 to 1 µg/mL
same,MIC (range over isolates),Citrobacter freundii,0.25 to 8 µg/mL
same,MIC (range over isolates),Citrobacter diversus,0.25 to 1 µg/mL
same,MIC (range over isolates),Serratia mercescens,2 to 8 µg/mL
same,MIC (range over isolates),Enterobacter cloacae,0.5 to 1 µg/mL
same,MIC (range over isolates),Enterobacter aerogenes,0.5 to 1 µg/mL
same,MIC (range over isolates),Proteus mirabilis,1 to 32 µg/mL
same,MIC (range over isolates),Proteus vulgaris,0.5 to 4 µg/mL
same,MIC (range over isolates),Morganella morganii,0.5 to 4 µg/mL
same,MIC (range over isolates),Pseudomonas aeruginosa,1 to 16 µg/mL
same,MIC (range over isolates),Xanthomonas maltophilia,0.5 to 2 µg/mL
same,MIC (range over isolates),Moraxella catarrhalis,0.06 to 0.12 µg/mL
same,MIC (range over isolates),Haemophilus influenzae,0.5 to 2 µg/mL
same,MIC (range over isolates),[14],0.03 to 0.25 µg/mL
same,MIC (range over isolates),[15],0.12 µg/mL
same,MIC (range over isolates),Bacteroides fragilis,0.06 to 0.2 µg/mL
same,MIC (range over isolates),[16],0.06 to 2 µg/mL
same,MIC (range over isolates),Clostridium difficile,0.03 µg/mL
same,MIC (range over isolates),Anaerobic Gram (+) Cocci,0.015 to 0.06 µg/mL
same,ED50,S. aureus SMITH (sens); Oral,8 to 16 mg/kg
same,ED50,"[17]; mice, Escherichia coli UBMS 90-4 (Tet-M), Intraveneous",2.49 mg/kg
